From patent publication US9266830B2, “Pesticidal arylpyrrolidines” (Bayer Intellectual Property GmbH, priority 2007, dated 2016)

What was measured:
Type in all cases: in vivo
Amblyomma hebraeum = Amblyomma hebraeum test (AMBYHE), nymph immersion; settings: for activity (mortality in %): application rate 100 ppm, nymphs, after 42 days
Procedure: (§1) Solvent: dimethyl sulfoxide
To produce a suitable preparation of active compound, 10 mg of active compound are dissolved in 0.5 ml solvent, and the concentrate is diluted with water to the desired concentration. Nymphs of the tick Amblyomma hebraeum are placed in perforated plastic beakers and immersed in aqueous compound solution for one minute. Ticks are transferred to a filter paper in a Petri dish and incubated in a climate chamber for 42 days.
After 42 days mortality in % is determined 100% means that all the ticks have been killed; 0% means that none of the ticks have been killed.

Boophilus microplus = Boophilus microplus test (injection); settings: application rate 20 μg/animal, adult engorged females, after 7 days
Procedure: as §1
To produce a suitable preparation of active compound, 10 mg of active compound are dissolved in 0.5 ml solvent, and the concentrate is diluted with solvent to the desired concentration. Five adult engorged female ticks (Boophilus microplus) are injected with compound solution into the abdomen. Ticks are transferred into replica plates and incubated in a climate chamber for a period of time. Egg deposition of fertile eggs is monitored. After 7 days mortality in % is determined 100% means that all eggs are infertile; 0% means that all eggs are fertile.

Lucilia cuprina larvae = assay: Lucilia cuprina test (larvae in minced horse meat); settings: application rate 100 ppm, larvae, after 2 days
Procedure: as §1
To produce a suitable preparation of active compound, 10 mg of active compound are dissolved in 0.5 ml solvent, and the concentrate is diluted with water to the desired concentration. Approximately 20-30 (Lucilia cuprina larvae) are transferred into a test tube containing 1 cm^3 of minced horse meat and 0.5 ml aqueous dilution of test compound. After 2 days mortality in % is determined 100% means that all the larvae have been killed; 0% means that none of the larvae have been killed.

SMILES	activity (100% means that all eggs are infertile) (Boophilus microplus) [%]	also measured
C=CCNC(=O)NCc1ccc(N2CCC(c3cc(Cl)cc(Cl)c3)(C(F)(F)F)C2)cc1C(F)(F)F (stereo not drawn) [1-230]	100	activity (mortality in %) (Amblyomma hebraeum): 80%
CCC(=O)NCc1ccc(N2CCC(c3cc(Cl)cc(Cl)c3)(C(F)(F)F)C2)cc1Br (stereo not drawn) [3-5 according to WO2008/128711, reference compound]	–	Activity at 0.8 ppm (Amblyomma hebraeum; 0.8 ppm, comparison with WO2008/128711): 10%; Activity at 4 ppm (Amblyomma hebraeum; 4 ppm, comparison with WO2008/128711): 70%
CSCCC(=O)NCc1ccc(N2CCC(c3cc(Cl)cc(Cl)c3)(C(F)(F)F)C2)cc1C(F)(F)F (stereo not drawn) [1-509]	100	activity (mortality in %) (Amblyomma hebraeum): 90%
O=C(NCc1ccc(N2CCC(c3cc(C(F)(F)F)cc(C(F)(F)F)c3)(C(F)(F)F)C2)cc1Br)C1CC1 (stereo not drawn) [1-313]	100	activity (mortality in %) (Amblyomma hebraeum): 95%
O=C(CC(F)(F)F)NCc1ccc(N2CCC(c3cc(Cl)c(Cl)c(Cl)c3)(C(F)(F)F)C2)cc1Cl (stereo not drawn) [1-340]	100	activity (mortality in %) (Amblyomma hebraeum): 80%
CCC(=O)NCc1ccc(N2CCC(c3cc(C(F)(F)F)cc(C(F)(F)F)c3)(C(F)(F)F)C2)cc1Cl (stereo not drawn) [1-307]	100	activity (mortality in %) (Amblyomma hebraeum): 80%
NCc1ccc(N2CCC(c3cc(C(F)(F)F)cc(C(F)(F)F)c3)(C(F)(F)F)C2)cc1Cl (stereo not drawn) [1-306]	–	activity (mortality in %) (Lucilia cuprina larvae): 90%
O=C(CCCl)NCc1ccc(N2CCC(c3cc(C(F)(F)F)cc(C(F)(F)F)c3)(C(F)(F)F)C2)cc1C(F)(F)F (stereo not drawn) [1-297]	100	activity (mortality in %) (Amblyomma hebraeum): 90%
O=C(CC(F)(F)F)NCc1ccc(N2CCC(c3cc(C(F)(F)F)cc(C(F)(F)F)c3)(C(F)(F)F)C2)nc1C(F)(F)F (stereo not drawn) [1-404]	100	activity (mortality in %) (Amblyomma hebraeum): 85%
C[S+]([O-])CC(=O)NCc1ccc(N2CCC(c3cc(Cl)c(Cl)c(Cl)c3)(C(F)(F)F)C2)cc1C(F)(F)F (stereo not drawn) [1-729]	100	–
CCC(=O)NCc1ccc(N2CCC(c3cc(Cl)c(Cl)c(Cl)c3)(C(F)(F)F)C2)cc1Cl (stereo not drawn) [1-338]	100	–
CCC(=O)NCc1ccc(N2CCC(c3cc(C(F)(F)F)cc(C(F)(F)F)c3)(C(F)(F)F)C2)cc1Br (stereo not drawn) [1-312]	100	–
C=CCS(=O)(=O)CC(=O)NCc1ccc(N2CCC(c3cc(Cl)c(Cl)c(Cl)c3)(C(F)(F)F)C2)cc1C(F)(F)F (stereo not drawn) [1-734]	100	activity (mortality in %) (Amblyomma hebraeum): 90%
O=C(CC(F)(F)F)NCc1ccc(N2CCC(c3cc(Cl)c(Cl)c(Cl)c3)(C(F)(F)F)C2)cc1Br (stereo not drawn) [1-347]	100	activity (mortality in %) (Amblyomma hebraeum): 90%
CC(Br)C(=O)NCc1ccc(N2CCC(c3cc(Cl)cc(Cl)c3)(C(F)(F)F)C2)cc1Cl (stereo not drawn) [1-458]	100	–
CCNC(=O)NCc1ccc(N2CCC(c3cc(Cl)c(Cl)c(Cl)c3)(C(F)(F)F)C2)cc1Cl (stereo not drawn) [1-341]	100	–
C=CCSCC(=O)NCc1ccc(N2CCC(c3cc(Cl)cc(Cl)c3)(C(F)(F)F)C2)cc1C(F)(F)F (stereo not drawn) [1-503]	100	–
NCc1cnc(N2CCC(c3cc(C(F)(F)F)cc(C(F)(F)F)c3)(C(F)(F)F)C2)nc1C(F)(F)F (stereo not drawn) [3-146]	100	–
O=C(NCc1ccccn1)NCc1ccc(N2CCC(c3cc(Cl)cc(Cl)c3)(C(F)(F)F)C2)cc1C(F)(F)F (stereo not drawn) [1-254]	100	–
CCCNC(=O)NCc1ccc(N2CCC(c3cc(C(F)(F)F)cc(C(F)(F)F)c3)(C(F)(F)F)C2)cc1C(F)(F)F (stereo not drawn) [1-303]	100	–
COCC(=O)NCc1ccc(N2CCC(c3cc(Cl)cc(Cl)c3)(C(F)(F)F)C2)cc1Cl (stereo not drawn) [1-40]	100	–
NCc1ccc(N2CCC(c3cc(Cl)cc(Cl)c3)(C(F)(F)F)C2)cc1C(F)(F)F (stereo not drawn) [1-141]	100	–
CSCC(=O)NCc1ccc(N2CCC(c3cc(Cl)c(Cl)c(Cl)c3)(C(F)(F)F)C2)cc1C(F)(F)F (stereo not drawn) [1-728]	100	–
O=C(NCc1ccccn1)c1sc(N2CCC(c3cc(C(F)(F)F)cc(C(F)(F)F)c3)(C(F)(F)F)C2)nc1C(F)(F)F (stereo not drawn) [4-35]	100	–
C=CC[S+]([O-])CC(=O)NCc1ccc(N2CCC(c3cc(Cl)c(Cl)c(Cl)c3)(C(F)(F)F)C2)cc1C(F)(F)F (stereo not drawn) [1-733]	100	–

SMILES	activity (100% means that all eggs are infertile) (Boophilus microplus) [%]	also measured
CCOC(=O)NCc1ccc(N2CCC(c3cc(C(F)(F)F)cc(C(F)(F)F)c3)(C(F)(F)F)C2)cc1C(F)(F)F (stereo not drawn) [1-299]	100	–
NCc1ccc(N2CCC(c3cc(C(F)(F)F)cc(C(F)(F)F)c3)(C(F)(F)F)C2)cc1C(F)(F)F (stereo not drawn) [1-295]	100	–
CC(C)NC(=O)NCc1ccc(N2CCC(c3cc(C(F)(F)F)cc(C(F)(F)F)c3)(C(F)(F)F)C2)cc1C(F)(F)F (stereo not drawn) [1-304]	100	–
O=C(NCC(F)(F)F)c1cnc(N2CCC(c3cc(C(F)(F)F)cc(C(F)(F)F)c3)(C(F)(F)F)C2)nc1C(F)(F)F (stereo not drawn) [2-34]	100	–
O=C(NCc1ccc(N2CCC(c3cc(Cl)cc(Cl)c3)(C(F)(F)F)C2)cc1Cl)C1CC1(Cl)Cl (stereo not drawn) [1-24]	100	–
CSCC(=O)NCc1ccc(N2CCC(c3cc(C(F)(F)F)cc(C(F)(F)F)c3)(C(F)(F)F)C2)cc1C(F)(F)F (stereo not drawn) [1-966]	100	–
O=C(NCC(F)(F)F)c1sc(N2CCC(c3cc(C(F)(F)F)cc(C(F)(F)F)c3)(C(F)(F)F)C2)nc1C(F)(F)F (stereo not drawn) [4-34]	100	–
O=C(NCc1ccc(N2CCC(c3cc(Cl)cc(Cl)c3)(C(F)(F)F)C2)cc1Cl)C1CC1 (stereo not drawn) [1-4]	100	–
O=C(CC(F)(F)F)NCc1ccc(N2CCC(c3cc(Cl)c(Cl)c(Cl)c3)(C(F)(F)F)C2)cc1C(F)(F)F (stereo not drawn) [1-327]	100	–
CCS(=O)(=O)CC(=O)NCc1ccc(N2CCC(c3cc(Cl)cc(Cl)c3)(C(F)(F)F)C2)cc1C(F)(F)F (stereo not drawn) [1-501]	100	–
CC(C)(C)OC(=O)NCc1ccc(N2CCC(c3cc(C(F)(F)F)cc(C(F)(F)F)c3)(C(F)(F)F)C2)cc1C(F)(F)F (stereo not drawn) [1-300]	100	–
CCNC(=O)NCc1cnc(N2CCC(c3cc(Cl)c(Cl)c(Cl)c3)(C(F)(F)F)C2)nc1C(F)(F)F (stereo not drawn) [3-145]	100	–
FC(F)(F)C1(c2cc(Cl)cc(Cl)c2)CCN(c2ccc(CNC(=S)NC3CC3)c(Cl)c2)C1 (stereo not drawn) [1-468]	100	–
O=C(CC(F)(F)F)NCc1sc(N2CCC(c3cc(Cl)c(Cl)c(Cl)c3)(C(F)(F)F)C2)nc1C(F)(F)F (stereo not drawn) [5-144]	100	–
CC(=O)NC1CCc2cc(N3CCC(c4cc(Cl)c(Cl)c(Cl)c4)(C(F)(F)F)C3)ccc21 (stereo not drawn) [6-267]	100	–
O=C(NCc1cnc(N2CCC(c3cc(Cl)c(Cl)c(Cl)c3)(C(F)(F)F)C2)nc1C(F)(F)F)C1CC1 (stereo not drawn) [3-143]	100	–
O=C(NCc1ccc(N2CCC(c3cc(Cl)cc(Cl)c3)(C(F)(F)F)C2)cc1Cl)C1CC1(F)F (stereo not drawn) [1-25]	100	–
CS(=O)(=O)CC(=O)NCc1ccc(N2CCC(c3cc(Cl)cc(Cl)c3)(C(F)(F)F)C2)cc1C(F)(F)F (stereo not drawn) [1-495]	100	–
C=CC[S+]([O-])CC(=O)NCc1ccc(N2CCC(c3cc(Cl)cc(Cl)c3)(C(F)(F)F)C2)cc1C(F)(F)F (stereo not drawn) [1-504]	100	–
O=C(NCc1ccc(N2CCC(c3cc(Cl)cc(Cl)c3)(C(F)(F)F)C2)cc1C(F)(F)F)NCC1CC1 (stereo not drawn) [1-232]	100	–
CSCC(=O)NCc1ccc(N2CCC(c3cc(Cl)cc(Cl)c3)(C(F)(F)F)C2)cc1C(F)(F)F (stereo not drawn) [1-186]	100	–
CCC(=O)NCc1ccc(N2CCC(c3cc(Cl)c(Cl)c(Cl)c3)(C(F)(F)F)C2)cc1Br (stereo not drawn) [1-345]	100	–
C[S+]([O-])CC(=O)NCc1ccc(N2CCC(c3cc(Cl)cc(Cl)c3)(C(F)(F)F)C2)cc1C(F)(F)F (stereo not drawn) [1-494]	100	–
CN(C)C(=O)NCc1ccc(N2CCC(c3cc(Cl)cc(Cl)c3)(C(F)(F)F)C2)cc1Cl (stereo not drawn) [1-118]	100	activity (mortality in %) (Amblyomma hebraeum): 90%
